According to patent US7371780B2, “Use of calphostin C to treat drug-resistant tumor cells” (priority 2003, dated 2008):

Legend:
MCF-7 cells [1] = test: Drug uptake (flow cytometry / scintillation counting), MCF-7; format: cell-based, human; details: 100 nM calphostin C
Description: (§1) FIG. 5 illustrates the effect of calphostin C (Cal-C) on drug uptake in MCF-7 (square symbols), MCF-7TAX (diamond symbols) and MCF-7DOX (triangular symbols) cells. After one-day growth, the cells were left untreated (closed symbols) or treated with 100 nM calphostin C for 2 h with light activation (open symbols). Cells were then washed and the medium replaced with medium containing 2 μM of doxorubicin (A) or [^3H]-paclitaxel (B). The cells were then trypsinized and drug accumulation measured by flow cytometry (A) or liquid scintillation counting (B) at indicated time points. The figures are representative of three independent experiments.

[2] = system: human 293T embryonic kidney cells; test: Death and cytoplasmic vacuolization, 293T; format: cell-based; details: data not shown
[3] = system: MES-SA human uterine sarcoma cells; test: Death and cytoplasmic vacuolization, MES-SA; format: cell-based; details: data not shown
MCF-7 cells [4] = test: Microscopic cell morphology (bright field, AO/EB, PI), MCF-7; format: cell-based, human; details: 50 nM light-activated calphostin C
Description: For microscopic observation, cells were seeded onto standard glass coverslips in 10 cm tissue culture plates with 10 ml of H21 medium and grown for 2 days until 40-50% confluence was obtained. After treatment with paclitaxel, doxorubicin or calphostin C, the cells on the glass coverslips were washed twice with PBS (2.7 mM KCl, 1.0 mM KH2PO4, 137 mM NaCl, 10 mM Na2HPO4, pH 7.4) and stained with acridine orange/ethidium bromide (each at 4 μg/ml in PBS) for 10 min at 37° C.. The coverslips were then washed three times in PBS and mounted onto standard glass slides for morphological evaluation. For propidium iodide (PI) staining, the cells on coverslips were washed twice with PBS and fixed in methanol (cooled to −20° C.) for 20 min. Thirty μl of propidium iodide (PI) staining solution (100 μg/ml PI, 0.1% sodium citrate, 100 μg/ml RNase A and 0.3% Nonidet P-40) were then applied to the coverslips for 5 min. […] The cells were then examined using a Zeiss Axiovert 100 inverted fluorescence microscope. […] For each sample, the number of dead cells was determined by visualization after ethidium bromide staining, whereby only dead cells which have lost membrane integrity allow entry of cell-impermeable ethidium bromide into cells to complex with DNA and induce bright red fluorescence. […] The images were recorded and overlayed using Northern Eclipse software (Empix Imaging Inc., Mississauga, ON).

MCF-7DOX cells [5] = test: Drug uptake, MCF-7DOX; format: cell-based, human
Description: as §1

MCF-7DOX cells [6] = test: Cytoplasmic shrinkage by hematoxylin/eosin staining, MCF-7DOX; format: cell-based, human
Description: For staining with hematoxylin and eosin, cells were grown in a six-well culture plate with each well containing a Snowcoat X-Tra™ microscope slide (Surgipath Laboratories, MB) immersed in 3 ml of H21 medium. When the cells reached 50% confluence, they were treated with 0-300 nM calphostin C, followed by a 2 hour exposure of the cultures to fluorescent light as described above. After light activation, the cells were placed in a 37° C. humidified incubator with 5% CO2 and incubated for an additional 22 hours. The cells were then stained with hematoxylin and eosin using a previously described procedure. Briefly, the media was removed from cell cultures and the cells that remained adhered to the slides were washed with PBS, fixed in formalin:acetone (1:2) for 2 min, and allowed to air dry for 10 min. After washing with distilled water, 250 μl of hematoxylin solution (BDH Chemicals, Toronto, ON) was placed on each slide and allowed to incubate with the cells for 5 min. The slides were then washed with distilled water, Scott's tap water (20 g MgSO4.7H2O, 1.5 g NaHCO3 in 1 L H2O), and a final wash with distilled water. The cells on the slides were then stained for 5 min in 250 μl of eosin solution (100 ml of 1% eosin, 10 ml of 1% phyloxine, 4 ml of glacial acetic acid, and 780 ml of 95% ethanol). The cells were then dehydrated by washing three times in 95% ethanol and twice in 100% ethanol. The small slide was then mounted on a standard microscope glass slide, and 10 randomly selected fields were viewed at 100× magnification and photographed. For each concentration of calphostin C, the total number of dead cells in each field was ascertained and expressed relative to the total number of cells in the field.

MCF-7DOX cells [7] = test: Flow cytometric sub-G1 DNA content, MCF-7DOX; format: cell-based, human; details: 100 nM calphostin C
Description: (§2) For flow cytometric analysis, cells at about 50% to 60% confluence were released from their flasks by trypsin treatment and washed with PBS. After centrifugation at 1000 rpm for 5 min, cells were then fixed by resuspension in 75% ethanol for 2 hours, collected by centrifugation, and resuspended in PI staining solution (see above) for 1 h. For each sample, approximately 2×10^4 cells were analyzed using a Beckman Coulter Epics® Elite flow cytometer. Fluorescence intensity upon stimulation with an argon-ion laser at 488 nm was measured using the PMT4 channel (625DL filter) and plotted against cell number. The percentage of cells with a sub-G1 DNA content was determined by the flow cytometer, adjusting the gates such that only cells with a fluorescence lower than the peak for untreated cells in G1 are counted (see FIG. 4).

[8] = system: mouse B16BL6 melanoma cells; test: Death and cytoplasmic vacuolization, B16BL6; format: cell-based; details: data not shown
[9] = mice, cited from earlier work
MCF-7TAX cells = test: Flow cytometric sub-G1 DNA content, MCF-7TAX; format: cell-based, human; details: 100 nM calphostin C, 2 h light
Description: as §2

[10] = system: Chinese hamster ovary (CHO) cells; test: Death and cytoplasmic vacuolization, CHO; format: cell-based; details: data not shown

COc1c(C[C@@H](C)OC(=O)Oc2ccc(O)cc2)c2c3c(C[C@@H](C)OC(=O)c4ccccc4)c(OC)c(=O)c4c(O)cc(OC)c(c5c(OC)cc(O)c(c1=O)c52)c43 [calphostin C]
effect on paclitaxel accumulation (MCF-7 cells [1]): decreased paclitaxel accumulation | induction of death and cytoplasmic vacuolization [2]: induce both death and cytoplasmic vacuolization | induction of death and cytoplasmic vacuolization [3]: induce both death and cytoplasmic vacuolization | percentage of cells showing cytoplasmic vacuoles (MCF-7 cells [4]): Over 50% | effect on paclitaxel uptake (MCF-7DOX cells [5]; 100 nM calphostin C): little effect | effect on doxorubicin uptake (MCF-7DOX cells [5]; 100 nM calphostin C 2 h with light, then 2 μM doxorubicin): little ability to re-establish doxorubicin uptake | concentration at which cytoplasmic shrinkage was first observed (MCF-7DOX cells [6]): 100 nM | concentration required for complete cytoplasmic shrinkage (MCF-7DOX cells [6]): 300 nM | percentage of cells exhibiting cytoplasmic shrinkage (MCF-7DOX cells [6]; 25 nM calphostin C): remained unchanged | time of strong increase in percentage of sub-G1 cells after treatment (MCF-7DOX cells [7]; MCF-7ADR (so in the source), 2 h light): 8 h | percentage of cells with sub-G1 DNA content versus similarly treated MCF-7 or MCF-7TAX cells (MCF-7DOX cells [7]; MCF-7DOX): significantly lower | induction of death and cytoplasmic vacuolization [8]: induce both death and cytoplasmic vacuolization | clearance rate t1/2 ([9]; 40 mg/kg): 1.52 h | plasma concentration reached without significant cytotoxicity [9]: 2900 nM | time of strong increase in percentage of sub-G1 cells after treatment (MCF-7TAX cells): 8 h | induction of death and cytoplasmic vacuolization [10]: induce both death and cytoplasmic vacuolization
